Legend:
NDM-1 = NDM-1 (Klebsiella pneumoniae, UniProt C7C422); assay: Enzyme activity: determination of IC50, fluorescence assay with CCF2-FA substrate; type: biochemical; settings: NDM-1 enzyme 1 pM, CCF2-FA 1.25 μM, 2 hours at 25° C.; read-out: NDM1 IC50
Method in brief: (§1)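 Read-out: fluorescence, ex 405 nm / em 460 nm, after 2 h at 25° C with 1.25 μM CCF2-FA. Buffer 100 mM KH2PO4 pH 7, 0.005% Tween-20, 10 μM ZnSO4; enzyme 1 pM NDM-1, 2 pM IMP-1, 30 pM VIM-1. IC50 by 4-parameter fit.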

IMP-1 = IMP-1 (Serratia marcescens, UniProt P52699); assay: as above; type: biochemical; settings: IMP-1 enzyme 2 pM, CCF2-FA 1.25 μM, 2 hours at 25° C.; read-out: IMP1 IC50
IMP-1, sequence (P52699 19-246, looked up, species assumed): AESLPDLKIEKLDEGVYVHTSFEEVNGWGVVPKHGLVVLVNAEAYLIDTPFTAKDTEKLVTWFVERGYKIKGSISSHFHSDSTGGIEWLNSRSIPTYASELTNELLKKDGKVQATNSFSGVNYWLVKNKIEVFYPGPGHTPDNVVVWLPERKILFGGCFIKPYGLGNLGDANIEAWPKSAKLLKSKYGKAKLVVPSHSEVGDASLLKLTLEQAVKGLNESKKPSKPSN
Method in brief: as §1

VIM-1 = VIM-1 (Pseudomonas aeruginosa, UniProt A0A0F7KYQ8); assay: as above; type: biochemical; settings: VIM-1 enzyme 30 pM, CCF2-FA 1.25 μM, 2 hours at 25° C.; read-out: VIM1 IC50
Method in brief: as §1

[1] = test system: Serratia marcescens expressing IMP-1 (CL5741); assay: Antibiotic potentiation activity: synergistic concentration (MITC95) with imipenem, growth by OD600; type: cell-based; settings: S. marcescens CL5741 (IMP-1), 95% inhibition of growth
Method in brief: (§2)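 Strains grown overnight at 35° C, resuspended in saline, diluted 1:100 into 1.1×CAMHB; imipenem at 1 μg/ml or 4 μg/ml with test compound 200 μM to 0.195 μM. Incubated 22 hours to 24 hours at 35° C, OD600 read; MITC95 is lowest compound concentration inhibiting 95% of growth.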

[2] = test system: Escherichia coli expressing NDM-1 (CLB30016); assay: as above; type: cell-based; settings: E. coli CLB30016 (NDM-1), 95% inhibition of growth
Method in brief: as §2

[3] = test system: Klebsiella pneumoniae expressing VIM-1 (IHMA599644); assay: as above; type: cell-based; settings: K. pneumoniae IHMA599644 (VIM-1), 95% inhibition of growth
Method in brief: as §2

NDM-1, sequence (C7C422 29-270, looked up, species assumed): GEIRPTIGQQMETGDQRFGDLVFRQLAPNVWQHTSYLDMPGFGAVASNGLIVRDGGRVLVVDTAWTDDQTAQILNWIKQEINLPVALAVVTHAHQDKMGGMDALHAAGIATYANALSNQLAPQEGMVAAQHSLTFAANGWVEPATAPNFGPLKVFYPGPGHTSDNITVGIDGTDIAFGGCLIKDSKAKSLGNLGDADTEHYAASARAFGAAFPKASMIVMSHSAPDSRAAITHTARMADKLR

Row | SMILES | IC50 (NDM-1) [nM] | IC50 (IMP-1) [nM] | IC50 (VIM-1) [nM] | IMP1 SM5741 MITC95 [1] [µM] | NDM1 EC30016 MITC95 [2] [µM] | VIM1 KP599644 MITC95 [3] [µM]
1 | CCC[C@H](C(=O)O)[C@H](CCc1ccccc1)c1nnn[nH]1 [Example 266, (2S,3S)-5-phenyl-2-propyl-3-(1H-tetrazol-5-yl)pentanoic acid] | 190 | 1000 | 20 | 38 | 12.5 | 25
2 | CCC[C@H](C(=O)O)[C@H](Cc1cc(C(F)(F)F)cc(C(F)(F)F)c1)c1nnn[nH]1 [Example 269, (2S)-2-[(1S)-2-[3,5-bis(trifluoromethyl)phenyl]-1-(1H-tetrazol-5-yl)ethyl]pentanoic acid] | 36 | 1500 | 0.76 | 38 | 18.8 | 38
3 | CCC[C@H](C(=O)O)[C@H](Cc1ccc2nsnc2c1)c1nnn[nH]1 [Example 271, (2S)-2-[(1S)-2-(2,1,3-benzothiadiazol-5-yl)-1-(1H-tetrazol-5-yl)ethyl]pentanoic acid] | 84 | 650 | 1.1 | 50 | 6.2 | 12.5
4 | CCC[C@H](C(=O)O)[C@H](Cc1cccc2nsnc12)c1nnn[nH]1 [Example 272, (2S)-2-[(1S)-2-(2,1,3-benzothiadiazol-4-yl)-1-(1H-tetrazol-5-yl)ethyl]pentanoic acid] | 12 | 600 | 0.35 | 38 | 4.7 | 9.4
5 | CCC[C@H](C(=O)O)[C@H](Cc1ccc2nonc2c1)c1nnn[nH]1 [Example 273, (2S)-2-[(1S)-2-(2,1,3-benzoxadiazol-5-yl)-1-(1H-tetrazol-5-yl)ethyl]pentanoic acid] | 260 | 2200 | 1.9 | 150 | 12.5 | 9.4
6 | CCC[C@H](C(=O)O)[C@H](Cc1ccc(C(=O)N2CCNCC2)cc1)c1nnn[nH]1 [Example 275, (2S)-2-[(1S)-2-[4-(piperazin-1-ylcarbonyl)phenyl]-1-(1H-tetrazol-5-yl)ethyl]pentanoic acid] | 39 | 520 | 41 | 25 | 9.4 | 38
7 | CCC[C@H](C(=O)O)[C@H](Cc1ccc(C(=O)NCCN)cc1)c1nnn[nH]1 [Example 276, (2S)-2-[(1S)-2-{4-[(2-aminoethyl)carbamoyl]phenyl}-1-(1H-tetrazol-5-yl)ethyl]pentanoic acid] | 1100 | 5400 | 8.4 | 100 | 12.5 | 25
8 | CCC[C@H](C(=O)O)[C@H](Cc1ccc(C(=O)N(C)C)cc1)c1nnn[nH]1 [Example 277, (2S)-2-[(1S)-2-[4-(dimethylcarbamoyl)phenyl]-1-(1H-tetrazol-5-yl)ethyl]pentanoic acid] | 10 | 130 | 13 | 12.5 | 25 | 75
9 | CCC[C@H](C(=O)O)[C@H](Cc1ccc(C(=O)N2CCC(N)CC2)cc1)c1nnn[nH]1 [Example 278, (2S)-2-[(1S)-2-{4-[(4-aminopiperidin-1-yl)carbonyl]phenyl}-1-(1H-tetrazol-5-yl)ethyl]pentanoic acid] | 10 | 200 | 120 | 6.2 | 12.5 | 50
10 | CCC[C@H](C(=O)O)[C@H](Cc1ccc(C(=O)NC)cc1)c1nnn[nH]1 [Example 279, (2S)-2-[(1S)-2-[4-(methylcarbamoyl)phenyl]-1-(1H-tetrazol-5-yl)ethyl]pentanoic acid] | 1000 | 9500 | 100 | >200 | 150 | >200
11 | CCC[C@H](C(=O)O)[C@H](Cc1ccc(C(=O)NCCO)cc1)c1nnn[nH]1 [Example 280, (2S)-2-[(1S)-2-{4-[(2-hydroxyethyl)carbamoyl]phenyl}-1-(1H-tetrazol-5-yl)ethyl]pentanoic acid] | 140 | 880 | 2.7 | 25 | 18.8 | 25
12 | CCC[C@H](C(=O)O)[C@H](Cc1ccc(C(=O)NC2CC2)cc1)c1nnn[nH]1 [Example 281, (2S)-2-[(1S)-2-[4-(cyclopropylcarbamoyl)phenyl]-1-(1H-tetrazol-5-yl)ethyl]pentanoic acid] | 770 | 5300 | 86 | 200 | 100 | 200
13 | CCC[C@H](C(=O)O)[C@H](Cc1ccc(C(=O)NCC2CC2)cc1)c1nnn[nH]1 [Example 282, (2S)-2-[(1S)-2-{4-[(cyclopropylmethyl)carbamoyl]phenyl}-1-(1H-tetrazol-5-yl)ethyl]pentanoic acid] | 98 | 730 | 19 | 50 | 18.8 | 50
14 | CCC[C@H](C(=O)O)[C@H](Cc1ccc(C(=O)O)cc1)c1nn[nH]n1 [Example 283, 4-((2S,3S)-3-carboxy-2-(2H-tetrazol-5-yl)hexyl)benzoic acid] | 50 | 850 | 17 | 38 | 100 | 200
15 | CCC[C@H](C(=O)O)[C@H](Cc1nnc(N)s1)c1nnn[nH]1 [Example 284, (S)-2-((S)-2-(5-amino-1,3,4-thiadiazol-2-yl)-1-(1H-tetrazol-5-yl)ethyl)pentanoic acid] | 13000 | > 20000 | 340 | >200 | 25 | 38
16 | CCC[C@H](C(=O)O)[C@H](Cc1cnc(SC)nc1)c1nnn[nH]1 [Example 285, (S)-2-((S)-2-(2-(methylthio)pyrimidin-5-yl)-1-(1H-tetrazol-5-yl)ethyl)pentanoic acid] | 190 | 14000 | 3.3 | >200 | 25 | 25
17 | CCC[C@H](C(=O)O)[C@H](Cc1cnc(S(C)(=O)=O)nc1)c1nnn[nH]1 [Example 286, (S)-2-((S)-2-(2-(methylsulfonyl)pyrimidin-5-yl)-1-(1H-tetrazol-5-yl)ethyl)pentanoic acid] | 4600 | > 20000 | 37 | >200 | 25 | 18.8
18 | CCC[C@H](C(=O)O)[C@H](Cc1cnc(N2CCOCC2)nc1)c1nnn[nH]1 [Example 287, (S)-2-((S)-2-(2-morpholinopyrimidin-5-yl)-1-(1H-tetrazol-5-yl)ethyl)pentanoic acid] | 100 | 9200 | 5 | 75 | 25 | 50
